# Reference: PubChem BioAssay (NCI)
# Where “and” joins values, the source holds several entries; their conditions need not be identical. Identical values can stand only once.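 Each compound was tested at five concentrations against cells in 96-well plates for 48 hours. GI50 marks 50% less growth. TGI denotes the concentration required for complete inhibition of growth.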
# Assays:
# Experiment in all cases: NCI tumour cell line growth inhibition, 48 h
# [1] = tested on: HL-60(TB) leukemia
# [2] = tested on: HS 578T breast
# [3] = tested on: HT29 colon
# [4] = tested on: IGROV1 ovarian
# [5] = tested on: MCF7 breast
# [6] = tested on: MDA-MB-231 breast
# [7] = tested on: NCI-H226 lung
# [8] = tested on: SK-MEL-5 melanoma
# [9] = tested on: U251 CNS
# [10] = tested on: UACC-62 melanoma
Structure (SMILES),GI50 [1],GI50 [2],TGI [2],GI50 [3] [µM],TGI [3],GI50 [4],TGI [4],GI50 [5],TGI [5],GI50 [6] [µM],TGI [6],GI50 [7],TGI [7],GI50 [8] [µM],TGI [8],GI50 [9],TGI [9],GI50 [10],TGI [10],TGI [1]
COc1ccc(CC(NC(=O)[C@H](C)NC(=O)CN2CCOCC2)C(=O)N[C@@H](Cc2ccccc2)C(=O)[C@@]2(C)CO2)cc1 (stereo partly specified),0.157 µM,0.286 µM,2.12 µM,0.339,> 33.9 µM,0.409 µM,7.3 µM,0.129 µM,> 41.6 µM,0.24,1.1 µM,0.246 µM,0.725 µM,0.177,0.379 µM,0.271 µM,1.07 µM,0.182 µM,0.479 µM,–
COc1cc2cc(Oc3ccc(NC(=O)Nc4ccc(Cl)c(C(F)(F)F)c4)cc3)c(C)nc2cc1OC,1.13 µM,0.72 µM,2.31 µM,1.2,3.98 µM,2.34 µM,9.83 µM,1.08 µM,3.88 µM,0.681,1.84 µM,1.27 µM,5.01 µM,0.793,2.17 µM,1.03 µM,3.78 µM,1.24 µM,6.01 µM,3.12 µM
C[C@@H](Oc1ccc2[nH]nc(/C=C/c3cnn(CCO)c3)c2c1)c1c(Cl)cncc1Cl,0.237 µM,0.106 µM,0.681 µM,0.171,0.681 µM,0.135 µM,5.04 µM,0.0573 µM,4.06 µM,0.357,> 26.5 µM,0.0304 µM,–,0.963,3.6 µM,0.142 µM,2.41 µM,1.65 µM,3.81 µM,3.21 µM
O=C1C(=O)c2ccccc2C(O)=C1CC=C(Cl)Cl,3.24 µM and 13.3 µM,14 µM and 13.3 µM,194 µM and > 100 µM,6.4,141 µM and > 100 µM,4.93 µM and 8.27 µM,119 µM and > 100 µM,5.15 µM and 4.73 µM,> 58.5 µM and 131 µM and > 100 µM,3.59,> 52.8 µM and 119 µM and 56.2 µM,8.26 µM and 24.2 µM and 14.4 µM,39.9 µM and 135 µM and 91.1 µM,3.54,22.6 µM and 43 µM and 21.6 µM,2.17 µM and 2.01 µM,> 85.8 µM and 138 µM and > 100 µM,6.1 µM and 8.42 µM,40 µM and 81.7 µM and > 100 µM,37.8 µM and > 76.6 µM and 56.6 µM
CN1CCN(CCNc2ccc(CO)c3sc4ccccc4c(=O)c23)CC1,–,10.7 µM,31.8 µM,–,7.86 µM,–,27.2 µM,1.85 µM,8.77 µM,3.99,15.2 µM,–,13 µM,–,9.88 µM,–,14.6 µM,–,9.93 µM,15.7 µM
O=C(O)c1cscc1Cc1cccs1,–,–,> 100 µM,–,> 100 µM,–,> 100 µM,–,> 100 µM,–,> 100 µM,–,> 100 µM,–,> 100 µM,–,> 100 µM,–,> 100 µM,> 100 µM
COc1ccc2c(c1)cn1c3ccc(O)cc3[nH]c(=O)c21,0.216 µM,0.481 µM,25.2 µM,0.411,2.18 µM,0.338 µM,4.77 µM,0.366 µM,1.95 µM,0.469,2.47 µM,0.181 µM,6.92 µM,0.0362,1.32 µM,0.143 µM,1.9 µM,0.151 µM,6.02 µM,1.2 µM
COc1ccc(/C=C/C(=O)c2cc3c(N)c(C(=O)Nc4ccccc4C)sc3nc2C)cc1,0.239 µM,0.188 µM,> 50 µM,0.487,> 50 µM,0.655 µM,> 50 µM,0.24 µM,> 50 µM,1.18,> 38.5 µM,0.619 µM,12.2 µM,0.214,7.58 µM,1.4 µM,> 50 µM,0.275 µM,> 50 µM,1.99 µM
CCCCCCCCCCCCCC(=O)C(C)N (stereo unspecified),2.65 µM,9.16 µM,29.1 µM,3.89,13.7 µM,3.68 µM,14 µM,2.13 µM,5.77 µM,2.37,6.06 µM,21.8 µM,44.3 µM,17.9,32.2 µM,8.29 µM,21.7 µM,3.25 µM,10.4 µM,10.4 µM
CC(O)(CNS(=O)(=O)c1ccccc1)c1ccccc1 (stereo unspecified),–,–,> 100 µM,–,> 100 µM,–,> 100 µM,–,> 100 µM,–,> 100 µM,–,> 100 µM,–,> 100 µM,–,> 100 µM,–,> 100 µM,> 100 µM
O=[N+]([O-])c1ccc(/C=C(/c2ccc([N+](=O)[O-])o2)S(=O)(=O)c2ccccc2)o1,–,–,44.3 µM,–,13.6 µM,–,30.6 µM,–,72.7 µM,–,16.3 µM,–,3.65 µM,–,24.4 µM,–,29.4 µM,–,19.1 µM,8.67 µM
N#C/C(N)=C(\C#N)N=Cc1csc2ccccc12,> 100 µM,13.1 µM,58.9 µM,22.2,> 100 µM,15.8 µM,67.2 µM,3.41 µM,> 100 µM,15.2,41 µM,19.4 µM,76.3 µM,22.9,> 100 µM,20.2 µM,45.3 µM,28.2 µM,> 100 µM,> 100 µM
COc1ccc(Cl)cc1NC(=O)c1cccc([N+](=O)[O-])c1O,–,–,70.2 µM,–,> 95.6 µM,–,> 92.5 µM,–,66.2 µM,–,> 100 µM,–,64.9 µM,–,14.7 µM,–,> 62.7 µM,–,24.3 µM,> 69.6 µM
CS(=O)(=O)CCn1c(=O)c(Oc2ccc(F)cc2F)cc2cnc(NC3CCOCC3)nc21,> 25 µM,> 25 µM,> 25 µM,> 25,> 25 µM,> 25 µM,> 25 µM,> 25 µM,> 25 µM,> 25,> 25 µM,> 25 µM,> 25 µM,> 25,> 25 µM,> 25 µM,> 25 µM,> 25 µM,> 25 µM,> 25 µM
